Legend:
5HT2 receptor [1] = target: T1, 5HT2 receptor (Mus musculus, UniProt P35363); assay: 5-DMT head twitch test; format: in vivo; conditions: ip, mice, 5-DMT induced head twitch, read-out: ED50 FOR ABOLITION OF HEAD TWITCH
T1 construct: from tissue; host or cells: whole living mouse (endogenous receptor of the brain)
Method: Psychopharmacol., Vol. 3, pages 89-92, (1979). The administration of 5-methoxy-N,N-dimethyltryptamine (DMT) to mice typically produces a characteristic head twitch in the mice. In this test, the mice are administered 5-DMT and a test compound. An absence of head twitches in the mice is considered to be predictive of the ability of the test compound to antagonize the 5HT2 receptor in vivo.

5HT2 receptor [2] = target: T2, 5HT2 receptor (Rattus norvegicus, UniProt P14842); assay: [3H] spiroperidol binding test
T2 construct: from tissue
Source text: In this test, 5HT2 receptors are exposed to both [^3 H] spiroperidol, (a substance known to have a specific affinity for the receptor) and the test compound. The extent to which there is a decrease in binding of the [^3 H] spiroperidol to the receptor is indicative of the affinity of the test compound for the 5HT2 receptor.
1-(4-Fluorophenyl)-2-[4-[(4-methanesulfonamidophenyl)carbonyl]-1-piperidinyl]-ethanone (Compound #1) and 1-(4-fluorophenyl)-2-[4-[(4-acetamidophenyl)carbonyl]-1-piperidinyl]-ethanone (Compound #2) were tested in this procedure. For comparative purposes, 1-(3-pyridyl)-2-[4 -[(4-methanesulfonamidophenyl)carbonyl]-1-piperidinyl]ethanone (Compound #3) and N-[4-[[1-[2-(4-fluoro phenyl)ethyl]-4-piperidne]carbenyl]phenyl] methane sulfononamide (compound #4) were also tested. Compound #4 was described in European Application 0 320 983, supra, as Example Number 8 and was prepared in that manner.

thrombus formation = conditions: canine models; Bush et al., Drug Development Research, Vol. 7 (1986); cited from earlier work
[3] = test system: rabbit vascular smooth muscle cells; conditions: culture of rabbit vascular smooth muscle cells; Araki et al., Atherosclerosis, 83 (1990); cited from earlier work
[4] = test system: phospholipase C mediated hydrolysis of phosphoinositides in rabbit vascular smooth muscle cells; conditions: Araki et al.; cited from earlier work
[5] = test system: coronary vessel constriction; conditions: patients with stable angina; Golino et al., NEJM 1991; cited from earlier work

T1 sequence (P35363 whole entry): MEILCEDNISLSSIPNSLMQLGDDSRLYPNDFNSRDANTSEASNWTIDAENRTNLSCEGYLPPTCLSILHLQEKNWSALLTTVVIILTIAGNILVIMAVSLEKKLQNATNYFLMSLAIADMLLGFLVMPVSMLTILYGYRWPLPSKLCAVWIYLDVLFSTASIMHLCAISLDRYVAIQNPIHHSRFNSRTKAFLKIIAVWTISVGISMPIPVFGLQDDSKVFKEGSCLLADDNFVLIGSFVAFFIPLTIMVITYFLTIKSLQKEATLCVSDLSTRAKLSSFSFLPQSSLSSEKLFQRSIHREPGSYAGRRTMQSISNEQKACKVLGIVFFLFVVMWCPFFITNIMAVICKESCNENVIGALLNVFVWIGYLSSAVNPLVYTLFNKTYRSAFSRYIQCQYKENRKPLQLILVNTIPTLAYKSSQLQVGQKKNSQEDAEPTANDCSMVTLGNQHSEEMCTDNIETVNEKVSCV
T2 sequence (P14842 whole entry): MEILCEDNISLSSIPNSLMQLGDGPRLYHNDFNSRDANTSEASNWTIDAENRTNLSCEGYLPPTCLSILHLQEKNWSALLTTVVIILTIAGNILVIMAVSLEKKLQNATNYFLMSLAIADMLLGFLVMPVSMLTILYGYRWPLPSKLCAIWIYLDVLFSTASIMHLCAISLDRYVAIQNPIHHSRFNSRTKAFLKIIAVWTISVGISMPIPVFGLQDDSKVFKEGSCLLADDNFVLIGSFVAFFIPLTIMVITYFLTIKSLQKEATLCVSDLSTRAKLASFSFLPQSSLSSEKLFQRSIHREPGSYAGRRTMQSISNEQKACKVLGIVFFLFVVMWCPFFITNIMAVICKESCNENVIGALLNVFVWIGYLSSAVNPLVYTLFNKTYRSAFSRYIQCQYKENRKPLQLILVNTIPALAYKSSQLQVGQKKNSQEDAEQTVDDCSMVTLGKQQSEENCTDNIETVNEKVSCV

CS(=O)(=O)Nc1ccc(C(=O)C2CCN(CC(=O)c3cccnc3)CC2)cc1 [Compound #3, 1-(3-pyridyl)-2-[4-[(4-methanesulfonamidophenyl)carbonyl]-1-piperidinyl]-ethanone]
ED50 (5HT2 receptor [1]): > 200 mg/kg

CS(=O)(=O)Nc1ccc(C(=O)C2CCN(CCc3ccc(F)cc3)CC2)cc1 [Compound #4, N-[4-[[1-[2-(4-fluorophenyl)ethyl]-4-piperidne]carbenyl]phenyl] methane sulfononamide]
IC50 (5HT2 receptor [2]): 100 nM | ED50 (5HT2 receptor [1]): 0.49 mg/kg

CC(=O)Nc1ccc(C(=O)C2CCN(CC(=O)c3ccc(F)cc3)CC2)cc1 [Compound #2, 1-(4-fluorophenyl)-2-[4-[(4-acetamidophenyl)carbonyl]-1-piperidinyl]-ethanone]
ED50 (5HT2 receptor [1]): 0.051 mg/kg

O=C(c1ccc(F)cc1)C1CCN(CCn2c(=O)[nH]c3ccccc3c2=O)CC1 [Ketanserin]
prevention of thrombus formation (thrombus formation): extremely effective in preventing thrombus formation | inhibition of PDGF induced DNA synthesis [3]: inhibited PDGF induced DNA synthesis | inhibition of phospholipase C mediated hydrolysis of phosphoinositides [4]: inhibited phospholipase C mediated hydrolysis of phosphoinositides | block of coronary vessel constriction [5]: blocked coronary vessel constriction

CS(=O)(=O)Nc1ccc(C(=O)C2CCN(CC(=O)c3ccc(F)cc3)CC2)cc1 [Compound #1, 1-(4-Fluorophenyl)-2-[4-[(4-methanesulfonamidophenyl)carbonyl]-1-piperidinyl]-ethanone]
ED50 (5HT2 receptor [1]): 0.034 mg/kg

From patent US5292752A, “Antithrombotic compounds” (Merrell Dow Pharmaceuticals Inc., priority 1992, dated 1994)
